Reference: publication PMC12063173, “Metabolic Profiling of a Mediterranean-Inspired (Poly)phenol-Rich Mixture in the Brain: Perfusion Effect and In Vitro Blood–Brain Barrier Transport Validation” (Journal of Agricultural and Food Chemistry, 2025)
“Also recorded” adds a separate entry of the source.

Columns and labels:
[1] = tested on: human brain microvascular endothelial cells (HBMECs); assay: In vitro blood–brain barrier transport (Transwell); format: in vitro ADME; conditions: 2 h; for transport percentage, individual compounds: HBMEC monolayer, lower compartment / total concentration; for transport percentage, individual compounds / transport efficiency in both mixtures and as individual molecules: 2.5 μM; for transport efficiency in both mixtures and as individual molecules / transport efficiency in MIXperc compared with MIXeq: HBMEC; for transport efficiency in MIXperc compared with MIXeq: mixtures at 2.5 μM final
Description: The BBB transport model was established using human brain microvascular endothelial cells (HBMECs), following a methodology previously described.[49] Cells were maintained at 37 °C in a humidified environment with 5% CO2. HBMECs were seeded on 12-well Transwell inserts (12 mm, 0.4 μm pore polyester membrane; Corning, Madrid, Spain) and cultured for 6 days to form confluent monolayers suitable for transport studies. Transport assays were carried out in Hanks’ Balanced Salt Solution (HBSS) supplemented with 0.1% fetal bovine serum (FBS, v/v). The cells were exposed on the apical side to individual phenolic metabolites detected in the brain from the animal study, a representative mixture containing equal concentrations of these metabolites, or a physiological mixture reproducing their relative percentages as observed in the brain. All treatments were applied at a final concentration of 2.5 μM for 2 h (Supporting Information, Table S3). The integrity of the cell monolayers was confirmed by measuring transendothelial electrical resistance (TEER) at the start of the experiment (0 h) and after the last time point (2 h) using an EVOM2 Epithelial Volt Ohm Meter (World Precision Instruments, Inc., USA).
Samples from the apical and basolateral compartments were stored at −80 °C for further analysis. Transport of the compounds was evaluated using UPLC-qTOF as described elsewhere,[38] and transendothelial permeability expressed as a percentage of the ratio between the concentration in the basolateral compartment relative to the total concentration in both compartments.
Finally, one-way ANOVA with Tukey’s multiple comparisons test was exclusively applied to in vitro BBB transport experiments. The three tested conditions for each compound (individual compound, a mixture containing equal concentrations of these compounds, or a physiological mixture reproducing their relative percentages as observed in the brain were evaluated. Plots were performed using GraphPad 9.0 (GraphPad Software, Boston, Massachusetts, USA). Statistical significance was set at P < 0.05.
Figure 3 Transport efficiency of phenolic metabolites across the BBB. Human brain microvascular endothelial cells (HBMEC) were seeded onto semipermeable membranes. […] Detailed composition of both mixtures is given in the Supporting Information, Table S3. Media from the upper and lower compartments were collected, and endothelial transport was evaluated by UPLC-qTOF-MS. The transport percentage (%) was determined by the concentration ratio in the lower compartment to the total concentration (upper and lower compartments). All values are presented as mean ± SD from three independent experiments.

[2] = Nonperfused brain (NPB) kinetics of phenolic metabolites after oral capsule; format: in vivo, Sprague–Dawley rats; set-up: AUC0-t NPB: concentration or dose not given beside the values; conditions: for Tmax / MRT last / half-life: male, Sprague-Dawley, rat, 22 mg extract blend per capsule, one capsule per animal; for MRT last: read-out: MRT0-t NPB; for half-life: read-out: T1/2 NPB (converted)
Source text: (§1) Statistical analyses were applied depending on the experimental context.

[3] = Plasma pharmacokinetics of phenolic metabolites after oral capsule of (poly)phenol-rich Mediterranean extract mixture; conditions: for AUC0-t plasma / MRT0-t plasma / T1/2 plasma / Tmax plasma: oral capsule, 0-24 h, n = 6 per time point
Description: (§2) Adult male Sprague–Dawley rats weighing 250–300 g were purchased from the Animal Experimentation Service of the University of Murcia (Murcia, Spain). […] Animals were maintained in a temperature-controlled environment with a 12 h light-dark cycle. […] Based on the experimental design shown in Figure 1, one capsule was administered by gavage to each fasting animal. A total of 40 animals were used in the study. Thirty animals received a capsule containing a mixture of different Mediterranean food extracts, while ten animals received a capsule with microcrystalline cellulose and served as the control group. At each time point (1, 3, 6, 8, and 24 h postadministration), six animals from the extract group were sacrificed, three with transcardial perfusion using saline (PB) and three without perfusion (NPB), to assess the distribution of extract-derived metabolites in plasma and brain. To minimize animal use in accordance with the 3Rs principle, two control animals were sacrificed at each time point (one PB and one NPB). […] All animals were fasted overnight prior to gavage and euthanized with carbon dioxide.
(§3) Blood samples collected by cardiac puncture in sodium heparin tubes at each time point after sacrifice were immediately centrifuged at 14,000 × g for 15 min at 4 °C, and the plasma was stored at −80 °C until their analysis. Plasma samples were extracted with ACN:formic acid (98:2, v/v), centrifuged and evaporated in a speed vacuum concentrator (Savant SPD14 0DDA). The evaporated samples were resuspended in 100 μL MeOH and filtered through 0.22 μm regenerated cellulose filters (Minisart Sartorius, Madrid, Spain).
(§4) We performed a targeted metabolomic analysis using an ultrahigh-performance liquid chromatographic system (UPLC) coupled to a quadrupole-time-of-flight (QTOF) mass spectrometer. The phenolic compounds were separated using an Agilent Poroshell 120 column (100 mm × 3 mm, 2.7 μm) and a 5 μL injection volume. The mobile phases used were 0.1% formic acid in water (A) and 0.1% formic acid in ACN (B), and the gradient was: 0–3 min, 5–15% B; 3–11 min, 15–30% B; 11–14 min, 30–50% B, 14–16 min, 50–90% B. Finally, the B content was decreased to the initial conditions (5%) in 1 min, and the column re-equilibrated for 4 min. The flow rate was set constant at 0.4 mL/min. The spectra were acquired in the m/z range from 100 to 1100, in negative polarity mode and an acquisition rate of 1.5 spectra per second.

[4] = Perfused brain (PB) kinetics of phenolic metabolites after oral capsule; format: in vivo, Sprague–Dawley rats; set-up: AUC0-t PB: concentration or dose not given beside the values; conditions: perfused brain; for half-life: read-out: T1/2 PB (converted)
Source text: as §1

[5] = Targeted metabolomics (UPLC-ESI-QTOF) identification of metabolites in plasma, PB and NPB; conditions: P plasma, PB perfused brain, NPB nonperfused brain, 1-24 h after oral capsule
Description: (§5) Adult male Sprague–Dawley rats weighing 250–300 g were purchased from the Animal Experimentation Service of the University of Murcia (Murcia, Spain). […] Based on the experimental design shown in Figure 1, one capsule was administered by gavage to each fasting animal. A total of 40 animals were used in the study. Thirty animals received a capsule containing a mixture of different Mediterranean food extracts, while ten animals received a capsule with microcrystalline cellulose and served as the control group. […] To minimize animal use in accordance with the 3Rs principle, two control animals were sacrificed at each time point (one PB and one NPB). These controls served to identify potential endogenous compounds or background signals not related to the extract administration. All animals were fasted overnight prior to gavage and euthanized with carbon dioxide.
(§6) Plasma samples were extracted with ACN:formic acid (98:2, v/v), centrifuged and evaporated in a speed vacuum concentrator (Savant SPD14 0DDA). The evaporated samples were resuspended in 100 μL MeOH and filtered through 0.22 μm regenerated cellulose filters (Minisart Sartorius, Madrid, Spain). Next, half of the animals at each time point were perfused with ice-cold phosphate-buffered saline, and the blood-free brain was dissected out immediately and stored at – 80 °C until analysis, as previously reported.[37],[48]
(§7) Approximately 400 mg of brain tissue (perfused or nonperfused) was weighed and extensively washed with cold PBS to avoid external blood contamination. After weighting, the samples were placed in 2 mL screw cap tubes. […] The evaporated samples were resuspended in 100 μL MeOH and filtered through 0.22 μm regenerated cellulose filters.
(§8) We performed a targeted metabolomic analysis using an ultrahigh-performance liquid chromatographic system (UPLC) coupled to a quadrupole-time-of-flight (QTOF) mass spectrometer. The phenolic compounds were separated using an Agilent Poroshell 120 column (100 mm × 3 mm, 2.7 μm) and a 5 μL injection volume. […] The flow rate was set constant at 0.4 mL/min. The spectra were acquired in the m/z range from 100 to 1100, in negative polarity mode and an acquisition rate of 1.5 spectra per second. Quantitative data were processed using the Mass HunterQualitative Analysis software (version B.08.00, Agilent). A target screening strategy was applied for the qualitative analysis of possible metabolites derived from the consumption of the Mediterranean blend. […] These compounds encompass derived metabolites conjugated (glucuronides, sulfates, and sulfoglucuronides, among others). The exact mass of the proposed compound was extracted using an extraction window of 0.01 m/z. Metabolite quantification was performed by integrating the peak areas of their extracted ion chromatograms (EICs). Compounds with available standards were quantified using calibration curves derived from the respective standards, while other metabolites were semiquantified based on their peak area values.

[6] = set-up: method as in doi:10.1016/j.jff.2015.09.019; conditions: human, even upon high free ellagic acid intake; cited from earlier work
[7] = rat, in vivo
Description: as §5, §6, §7, §8

in vivo = conditions: male, Sprague-Dawley, rat, po
Description: as §2, §3, §4

[8] = nonperfused brain, oral capsule, 0-24 h, n = 3 per time point
[9] = male, Sprague-Dawley, rat, po, 22 mg extract blend per capsule, one capsule per animal
[10] = male, Sprague-Dawley, rat, 22 mg extract blend per capsule, one capsule per animal, oral capsule, 0-24 h, n = 3 per time point
[11] = oral capsule, 0-24 h, n = 3 per time point
[12] = read-out: Cmax plasma, oral capsule, 0-24 h, n = 6 per time point

Row | Structure (SMILES) | transport percentage, individual compounds [1] | Tmax [2, 8] | MRT last [2, 8] | half-life [2, 8] | AUC0-t NPB [2, 8] | Cmax NPB [2, 8] | AUC(0-t) [3, 9] | Cmax [3, 9] | MRT last [3, 9] | Tmax [3, 9] | half-life [3, 9] | Tmax [4, 10] | AUC0-t PB [4, 11] | Cmax PB [4, 11] | Tmax NPB [2, 8] | AUC0-t plasma [3] | MRT0-t plasma [3] | transport efficiency in both mixtures and as individual molecules [1] | occurrence [5] | transport efficiency in MIXperc compared with MIXeq [1] | other results
1 | O=C(O)CCc1cccc(O)c1 [3-(3-hydroxyphenyl) propionic acid] | exceeding 20% | 7.5 ± 3.1 h | 11 ± 4.1 h | 20 ± 15 h | 13 ± 11 pmol·h/g | 4.0 ± 3.6 pmol/g tissue | 0.481 ± 0.353 µM·h | 39 ± 20 nM | 9.77 h | 13 ± 11 h | 6.9 h | 3.3 ± 2.5 h | 11 ± 6.8 pmol·h/g | 1.0 ± 0.5 pmol/g tissue |  |  |  | relatively consistent transport efficiencies | PB, NPB, P |  | MRT last ([4]; male, Sprague-Dawley, rat, 22 mg extract blend per capsule, one capsule per animal, oral capsule, 0-24 h, n = 3 per time point, read-out: MRT0-t PB): 11 ± 6.9 h; half-life [4, 10]: 11 ± 6.9 h; occurrence ([5]; listed as 3-(3-hydroxyphenyl)propionic acid): consistently detected in plasma and brain at all time points
2 | O=C(O)CCCCc1cccc(O)c1 [5-(3-hydroxyphenyl)-valeric acid] |  | 2.3 ± 1.2 h | 102 ± 62 h | 70 ± 46 h | 33 ± 4.8 pmol·h/g | 3.4 ± 0.7 pmol/g tissue | 0.055 ± 0.011 µM·h | 4.8 ± 1.9 nM | 43 ± 45 h | 7.4 ± 9.5 h | 29 ± 32 h | 2 ± 1.2 h | 30 ± 6.5 pmol·h/g | 2.4 ± 0.8 pmol/g tissue |  |  |  |  | PB, NPB, P | lower transport percentages | concentration in plasma (approximate) [3]: approximately 5 nM; half-life [4, 10]: 39 ± 19 h; occurrence ([5]; listed as 5-(3-hydroxyphenyl)valeric acid): consistently detected in plasma and brain at all time points
3 | O=C(O)[C@H]1O[C@@H](Oc2cc(O)cc(CCc3ccc(O)cc3)c2)[C@H](O)[C@@H](O)[C@@H]1O [dihydroresveratrol 3-O-glucuronide] |  |  |  |  | 5.3 ± 2.8 pmol·h/g | 0.5 ± 0.1 pmol/g tissue |  |  |  |  |  |  | 1.3 ± 0.7 pmol·h/g | 0.4 ± 0.1 pmol/g tissue | 6.7 ± 1.2 h | 0.993 ± 0.558 µM·h | 14 ± 5.8 h |  | PB, NPB, P | significantly higher transport efficiencies | MRT0-t NPB [2, 8]: 44 ± 1 h; T1/2 NPB [2, 8]: 27 ± 1 h; T1/2 plasma [3]: 8.1 ± 3.2 h; Tmax plasma [3]: 6.2 ± 2.1 h; Cmax [3, 12]: 93 ± 45 nM; MRT0-t PB [4, 11]: 23 ± 26 h; T1/2 PB [4, 11]: 15 ± 18 h; Tmax PB [4, 11]: 3.3 ± 2.1 h
4 | O=S(=O)(O)Oc1ccc(C=Cc2cc(O)cc(O)c2)cc1 [resveratrol 4’-O-sulfate] |  |  |  |  |  |  |  |  |  |  |  |  |  |  |  |  |  |  | restricted to plasma |  | concentration–time profile in brain (Figure 2) [7]: Not detected; AUC(0-t) (in vivo): 0.026 ± 0.027 µM·h; Cmax (in vivo): 2.9 ± 2.8 nM; MRT last (in vivo): 10.7 h; Tmax (in vivo): 7.3 ± 1.2 h; half-life (in vivo): 5.6 h

Continued, in another order:

Row | transport percentage, individual compounds [1] | Tmax [2, 8] | MRT last [2, 8] | half-life [2, 8] | AUC0-t NPB [2, 8] | Cmax NPB [2, 8] | AUC(0-t) [3, 9] | Cmax [3, 9] | MRT last [3, 9] | Tmax [3, 9] | half-life [3, 9] | Tmax [4, 10] | AUC0-t PB [4, 11] | Cmax PB [4, 11] | Tmax NPB [2, 8] | AUC0-t plasma [3] | MRT0-t plasma [3] | Structure (SMILES) | transport efficiency in both mixtures and as individual molecules [1] | occurrence [5] | transport efficiency in MIXperc compared with MIXeq [1] | other results
5 | exceeding 20% |  |  |  | 3.32 pmol·h/g | 0.24 pmol/g tissue |  |  |  |  |  |  | 4.7 ± 1.8 pmol·h/g | 1.0 ± 0.7 pmol/g tissue | 3.00 h | 0.282 ± 0.332 µM·h | 13 ± 8.8 h | O=C(O)C=Cc1ccc(O)c(OS(=O)(=O)O)c1 [caffeic acid 3-O-sulfate] | relatively consistent transport efficiencies | PB, NPB, P |  | T1/2 plasma [3]: 8.3 ± 4.9 h; Tmax plasma [3]: 8.6 ± 8.9 h; Cmax [3, 12]: 22 ± 21 nM; MRT0-t PB [4, 11]: 8.7 ± 7.3 h; T1/2 PB [4, 11]: 5.2 ± 5.7 h; Tmax PB [4, 11]: 3.0 ± 0.1 h
6 | < 5% | 24 h |  |  | 18 ± 1 pmol·h/g | 0.9 ± 0.1 pmol/g tissue | 0.127 ± 0.031 µM·h | 16 ± 8.6 nM | 86 ± 138 h | 2.6 ± 0.9 h | 61 ± 94 h | 4.5 ± 5 h | 11 ± 2.8 pmol·h/g | 0.7 ± 0.3 pmol/g tissue |  |  |  | O=C(O)CCc1ccc(O)c(O)c1 [dihydrocaffeic acid] |  | PB, NPB, P |  | occurrence ([5]; listed as 3-(3,4-dihydroxyphenyl)propionic acid): consistently detected in plasma and brain at all time points
7 |  | 15 ± 13 h | 56.9 h | 36.3 h | 7.1 ± 7.5 pmol·h/g | 0.9 ± 0.9 pmol/g tissue | 0.0141 ± 0.0074 µM·h | 1.1 ± 0.8 nM | 103 h | 10 ± 12 h |  | 16 ± 11 h | 1.5 ± 1.1 pmol·h/g | 0.1 ± 0.08 pmol/g tissue |  |  |  | O=c1oc2c(O)c(O)cc3c(=O)oc4c(O)c(O)cc1c4c23 [ellagic acid] |  | PB, NPB, P | significantly higher transport efficiencies | concentration in NPB relative to PB ([2]; NPB versus PB): 9 fold; free ellagic acid concentration in plasma [6]: ≤ 100 nM
8 | exceeding 20% |  |  |  | 1.6 ± 0.6 pmol·h/g | 0.2 ± 0.1 pmol/g tissue |  |  |  |  |  |  |  | 2.8 ± 2.4 pmol/g tissue | 3.0 ± 0.0 h | 0.293 ± 0.154 µM·h | 45 ± 37 h | O=C(O)C=Cc1ccc(OS(=O)(=O)O)cc1 [p-coumaric acid 4-O-sulfate] | relatively consistent transport efficiencies | PB, NPB, P |  | T1/2 plasma [3]: 33 ± 28 h; Tmax plasma [3]: 3.6 ± 2.6 h; Cmax [3, 12]: 44 ± 47 nM; PB concentration relative to ferulic acid 4-O-sulfate [4]: 14 fold; MRT0-t PB [4, 11]: 30 ± 20 h; T1/2 PB [4, 11]: 23.85 h; Tmax PB [4, 11]: 19 ± 12 h
9 | < 5% | 15 ± 13 h |  |  | 2.2 ± 0.1 pmol·h/g | 0.2 ± 0.04 pmol/g tissue | 0.0084 ± 0.01 µM·h | 2.2 ± 2.6 nM | 8.5 ± 5.5 h | 5.2 ± 2.2 h | 3.9 ± 4.3 h | 5 ± 1.7 h | 0.1 ± 0.1 pmol·h/g | 0.1 ± 0.01 pmol/g tissue |  |  |  | O=S(=O)(O)Oc1cc(O)cc(C=Cc2ccc(O)cc2)c1 [resveratrol 3-O-sulfate] |  | detected in plasma, PB, and NPB; also recorded: PB, NPB, P | lower transport percentages | 
